In patent US8680139B2 (Progenra, priority 2009, dated 2014):

What was measured:
USP7 = biological target: T1, USP7 (Homo sapiens, UniProt Q93009); test: USP7, Ub-PLA2 assay; type: biochemical; conditions: for EC50: Ub-PLA2 / NBD C6-HPC fluorescence, 30 minute preincubation, read-out: EC50 for inhibition of USP7; for USP7 inhibition, result in words: USP7, Ub-PLA2 assay
T1 construct: full length human USP7 protein; made in house
In short: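 Activity read as fluorescence in a Ub-PLA2 format, with percent inhibition calculated within each plate against DMSO (uninhibited) and NEM (background) wells. Vehicle was 100% DMSO.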

[1] = HCT-116 Cellular Cytotoxicity Assay; conditions: human, HCT-116 cells, pH 7.2
Protocol: The purpose of this assay is to determine if any of the synthesized compounds are cytotoxic against HCT-116 cells, as measured by resazurin metabolism. Resazurin is metabolized only by living cells from a non-fluorescent molecule into Resorufin, a highly red fluorescent dye. […] The cells were cultured in an incubator at 37° C. in 5% CO2 and 95% humidified air. […] The final concentration DMSO was 0.5% (v/v) in all samples. The plates were returned to the incubator for 72 hours. Following 72 hours of test compound exposure, 10 μL of 0.2 mg/mL Resazurin (Sigma) in phosphate buffered saline was added to each well and the plate was returned to the incubator for 3-6 hours. Since living cells metabolize Resazurin, the fluorescence of the reduction product of Resazurin was measured using a microplate fluorometer with λex=531 nm and λem=590 nm filters. Resazurin dye in medium without cells was used to determine the background, which was subtracted from the data for all experimental wells.

T1 sequence (Q93009 whole entry): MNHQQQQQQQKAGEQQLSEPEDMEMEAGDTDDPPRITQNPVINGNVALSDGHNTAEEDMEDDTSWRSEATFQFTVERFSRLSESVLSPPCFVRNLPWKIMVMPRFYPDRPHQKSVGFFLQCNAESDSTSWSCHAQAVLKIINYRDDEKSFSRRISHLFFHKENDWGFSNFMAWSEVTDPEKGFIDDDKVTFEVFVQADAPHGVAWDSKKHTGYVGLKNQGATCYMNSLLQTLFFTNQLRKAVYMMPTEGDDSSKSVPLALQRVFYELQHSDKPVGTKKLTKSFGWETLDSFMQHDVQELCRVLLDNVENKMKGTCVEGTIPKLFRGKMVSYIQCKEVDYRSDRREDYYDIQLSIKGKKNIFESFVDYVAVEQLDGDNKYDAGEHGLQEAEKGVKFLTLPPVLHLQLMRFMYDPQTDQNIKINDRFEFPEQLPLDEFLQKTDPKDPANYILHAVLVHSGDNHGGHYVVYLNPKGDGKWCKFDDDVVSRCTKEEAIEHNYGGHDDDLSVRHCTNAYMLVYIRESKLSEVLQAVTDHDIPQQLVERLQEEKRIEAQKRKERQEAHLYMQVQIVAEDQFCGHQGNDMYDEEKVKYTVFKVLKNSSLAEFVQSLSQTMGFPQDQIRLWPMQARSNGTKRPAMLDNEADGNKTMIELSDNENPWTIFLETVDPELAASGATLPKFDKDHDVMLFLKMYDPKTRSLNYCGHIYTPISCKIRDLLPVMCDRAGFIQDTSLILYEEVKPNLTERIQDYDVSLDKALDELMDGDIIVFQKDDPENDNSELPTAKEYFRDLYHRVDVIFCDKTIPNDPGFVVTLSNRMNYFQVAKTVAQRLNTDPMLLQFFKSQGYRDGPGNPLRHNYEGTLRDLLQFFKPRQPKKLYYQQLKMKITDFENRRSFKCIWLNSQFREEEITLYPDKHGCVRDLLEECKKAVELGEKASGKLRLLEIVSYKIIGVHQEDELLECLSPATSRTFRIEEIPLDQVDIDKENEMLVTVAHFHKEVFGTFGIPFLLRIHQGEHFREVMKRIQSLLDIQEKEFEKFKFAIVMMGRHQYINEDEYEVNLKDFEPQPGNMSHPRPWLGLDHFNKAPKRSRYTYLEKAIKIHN

| SMILES | EC50 (USP7) | USP7 inhibition, result in words (USP7) | EC50 at 72 h [1] |
| --- | --- | --- | --- |
| CC(=O)c1cc([N+](=O)[O-])c(Sc2c(Cl)cccc2Cl)s1 [Example 7, 1-[5-(2,6-Dichlorophenylsulfanyl)-4-nitro-2-thienyl]ethanone] | 1000 to 10000 nM |  | 30.6 µM |
| CC(=O)c1cc([N+](=O)[O-])c(Sc2cc(Cl)cc(Cl)c2)s1 [Example 9, 1-[5-(3,5-Dichlorophenylsulfanyl)-4-nitro-2-thienyl]ethanone] | 1000 to 10000 nM |  | 8.13 µM |
| CN(C)CCC(=O)c1cc([N+](=O)[O-])c(Sc2ccc(Cl)cc2Cl)s1 [Example 24, 1-[5-(2,4-dichlorophenyl)sulfanyl-4-nitro-2-thienyl]-3-dimethylamino-propan-1-one] | 1000 to 10000 nM |  | 27.3 µM |
| CC(=O)c1cc([N+](=O)[O-])c(Sc2ccc(Cl)c(Cl)c2)s1 [Example 8, 1-[5-(3,4-Dichlorophenylsulfanyl)-4-nitro-2-thienyl]ethanone] | 1000 to 10000 nM |  | 14.8 µM |
| CN1CCC(NC(=O)c2cc(C#N)c(Sc3c(Cl)cncc3Cl)s2)CC1 [Example 203, 4-cyano-5-((3,5-dichloropyridin-4-yl)thio)-N-(1-methylpiperidin-4-yl)thiophene-2-carboxamide] | 1000 to 10000 nM |  | 10.4 µM |
| O=C1COc2ccc(Sc3sc(C(=O)Nc4cc(C5CC5)n[nH]4)cc3[N+](=O)[O-])cc2N1 [Example 248, N-(3-cyclopropyl-1H-pyrazol-5-yl)-4-nitro-5-((3-oxo-3,4-dihydro-2H-benzo[b][1,4]oxazin-6-yl)thio)thiophene-2-carboxamide] | 1000 to 10000 nM |  |  |
| CNC(=O)c1cc([N+](=O)[O-])c(Sc2cccc(Cl)c2Cl)s1 [Example 42, 5-(2,3-dichlorophenylsulfanyl)-N-methyl-4-nitrothiophene-2-carboxamide] | 1000 to 10000 nM |  |  |
| COC(=O)c1cc([N+](=O)[O-])c(Sc2nc3cc(Cl)c(F)cc3[nH]2)s1 [Example 265, Methyl 5-((5-chloro-6-fluoro-1H-benzo[d]imidazol-2-yl)thio)-4-nitrothiophene-2-carboxylate] | 1000 to 10000 nM |  |  |
| CC(C)(C)OC(=O)CNC(=O)c1cc([N+](=O)[O-])c(Sc2c(Cl)cncc2Cl)s1 [Example 62, tert-butyl 2-(5-((3,5-dichloropyridin-4-yl)thio)-4-nitrothiophene-2-carboxamido)acetate] | 1000 to 10000 nM |  |  |
| CC(C)N1CCC(NC(=O)c2cc([N+](=O)[O-])c(Sc3c(Cl)cncc3Cl)s2)CC1 [Example 187, 5-((3,5-dichloropyridin-4-yl)thio)-N-(1-isopropylpiperidin-4-yl)-4-nitrothiophene-2-carboxamide] | ≤ 1000 nM |  |  |
| CN(C)C(=O)c1cc([N+](=O)[O-])c(Sc2c(Cl)cncc2Cl)s1 [Example 49, 5-[(3,5-dichloro-4-pyridyl)sulfanyl]-N,N-dimethyl-4-nitro-thiophene-2-carboxamide] | 1000 to 10000 nM |  |  |
| O=C(NCc1ccc2c(c1)OCO2)c1cc([N+](=O)[O-])c(Sc2c(Cl)cncc2Cl)s1 [Example 151, N-(benzo[d][1,3]dioxol-5-ylmethyl)-5-((3,5-dichloropyridin-4-yl)thio)-4-nitrothiophene-2-carboxamide] | ≤ 1000 nM |  |  |
| Cc1ccsc1CNC(=O)c1cc([N+](=O)[O-])c(Sc2c(Cl)cncc2Cl)s1 [Example 56, 5-((3,5-dichloropyridin-4-yl)thio)-N-((3-methylthiophen-2-yl)methyl)-4-nitrothiophene-2-carboxamide] | 1000 to 10000 nM |  |  |
| O=C(Nc1ccc(Br)cc1)c1cc([N+](=O)[O-])c(Sc2c(Cl)cncc2Cl)s1 [Example 152, N-(4-bromophenyl)-5-((3,5-dichloropyridin-4-yl)thio)-4-nitrothiophene-2-carboxamide] | ≤ 1000 nM |  |  |
| O=C(NCC(=O)N1CCC(O)CC1)c1cc([N+](=O)[O-])c(Sc2c(Cl)cncc2Cl)s1 [Example 211, 5-((3,5-dichloropyridin-4-yl)thio)-N-(2-(4-hydroxypiperidin-1-yl)-2-oxoethyl)-4-nitrothiophene-2-carboxamide] | 1000 to 10000 nM |  |  |
| COC(=O)c1ccc(CNC(=O)c2cc([N+](=O)[O-])c(Sc3c(Cl)cncc3Cl)s2)cc1 [Example 163, methyl 4-((5-((3,5-dichloropyridin-4-yl)thio)-4-nitrothiophene-2-carboxamido)methyl)benzoate] | ≤ 1000 nM |  |  |
| O=C(NCc1cccc(OC(F)(F)F)c1)c1cc([N+](=O)[O-])c(Sc2c(Cl)cncc2Cl)s1 [Example 68, 5-((3,5-dichloropyridin-4-yl)thio)-4-nitro-N-(3-(trifluoromethoxy)benzyl)thiophene-2-carboxamide] | 1000 to 10000 nM |  |  |
| CC(=O)c1cc([N+](=O)[O-])c(Sc2cnc3ccccc3n2)s1 [Example 37, 1-(4-nitro-5-quinoxalin-2-ylsulfanyl-2-thienyl)ethanone] | 1000 to 10000 nM |  |  |
| O=C(NCCCN1CCC(CO)CC1)c1cc([N+](=O)[O-])c(Sc2c(Cl)cncc2Cl)s1 [Example 227, 5-((3,5-dichloropyridin-4-yl)thio)-N-(3-(4-(hydroxymethyl)piperidin-1-yl)propyl)-4-nitrothiophene-2-carboxamide] | ≤ 1000 nM |  |  |
| CC(=O)c1cc([N+](=O)[O-])c(Sc2ccc(Br)cc2)s1 [Example 12, 1-[5-(4-Bromophenylsulfanyl)-4-nitro-2-thienyl]ethanone] | 1000 to 10000 nM |  |  |
| O=C(NCc1ccccc1)c1cc([N+](=O)[O-])c(Sc2nc3ccccc3s2)s1 [Example 252, 5-(benzo[d]thiazol-2-ylthio)-N-benzyl-4-nitrothiophene-2-carboxamide] | 1000 to 10000 nM |  |  |
| O=C(NCCc1ccc(F)cc1)c1cc([N+](=O)[O-])c(Sc2c(Cl)cncc2Cl)s1 [Example 120, 5-((3,5-dichloropyridin-4-yl)thio)-N-(4-fluorophenethyl)-4-nitrothiophene-2-carboxamide] | ≤ 1000 nM |  |  |
| O=C(CNC(=O)c1cc([N+](=O)[O-])c(Sc2c(Cl)cncc2Cl)s1)NCC(F)F [Example 219, 5-((3,5-dichloropyridin-4-yl)thio)-N-(2-((2,2-difluoroethyl)amino)-2-oxoethyl)-4-nitrothiophene-2-carboxamide] | 1000 to 10000 nM |  |  |
| COc1cc(NC(=O)c2cc([N+](=O)[O-])c(Sc3c(Cl)cncc3Cl)s2)ccc1OCCCN(C)C [Example 240, 5-((3,5-dichloropyridin-4-yl)thio)-N-(4-(3-(dimethylamino)propoxy)-3-methoxyphenyl)-4-nitrothiophene-2-carboxamide] | ≤ 1000 nM |  |  |

The next lines start with results.

| EC50 (USP7) | USP7 inhibition, result in words (USP7) | SMILES | EC50 at 72 h [1] |
| --- | --- | --- | --- |
| ≤ 1000 nM | Particularly good results | CS(=O)(=O)c1ccc(NC(=O)c2cc([N+](=O)[O-])c(Sc3c(Cl)cncc3Cl)s2)cc1 [Example 129, 5-((3,5-dichloropyridin-4-yl)thio)-N-(4-(methylsulfonyl)phenyl)-4-nitrothiophene-2-carboxamide] | 5.89 µM |
| ≤ 1000 nM | Particularly good results | O=C(Nc1cc(C2CC2)n[nH]1)c1cc([N+](=O)[O-])c(Sc2c(Cl)cncc2Cl)s1 [Example 123, N-(3-cyclopropyl-1H-pyrazol-5-yl)-5-((3,5-dichloropyridin-4-yl)thio)-4-nitrothiophene-2-carboxamide] | 11 µM |
| ≤ 1000 nM |  | O=C(Nc1nccs1)c1cc([N+](=O)[O-])c(Sc2c(Cl)cncc2Cl)s1 [Example 172, 5-((3,5-dichloropyridin-4-yl)thio)-4-nitro-N-(thiazol-2-yl)thiophene-2-carboxamide] | 12.9 µM |
| ≤ 1000 nM |  | COc1ccc(NC(=O)c2cc([N+](=O)[O-])c(Sc3c(Cl)cncc3Cl)s2)cn1 [Example 175, 5-((3,5-dichloropyridin-4-yl)thio)-N-(6-methoxypyridin-3-yl)-4-nitrothiophene-2-carboxamide] | 7.23 µM |
| ≤ 1000 nM | Particularly good results | O=C(Nc1cnc2ccccc2c1)c1cc([N+](=O)[O-])c(Sc2c(Cl)cncc2Cl)s1 [Example 173, 5-((3,5-dichloropyridin-4-yl)thio)-4-nitro-N-(quinolin-3-yl)thiophene-2-carboxamide] | 5.15 µM |
| ≤ 1000 nM | Particularly good results | CN(C)CCCOc1ccc(NC(=O)c2cc([N+](=O)[O-])c(Sc3c(Cl)cncc3Cl)s2)cc1 [Example 193, 5-[(3,5-dichloro-4-pyridyl)sulfanyl]-N-[4-(3-dimethylaminopropoxy)phenyl]-4-nitro-thiophene-2-carboxamide] | 3.37 µM |
| ≤ 1000 nM | Particularly good results | COc1ccc(NC(=O)c2cc([N+](=O)[O-])c(Sc3c(Cl)cncc3Cl)s2)cc1 [Example 155, 5-((3,5-dichloropyridin-4-yl)thio)-N-(4-methoxyphenyl)-4-nitrothiophene-2-carboxamide] | 5.49 µM |
| ≤ 1000 nM |  | NS(=O)(=O)c1ccc(NC(=O)c2cc([N+](=O)[O-])c(Sc3c(Cl)cncc3Cl)s2)cc1 [Example 160, 5-((3,5-dichloropyridin-4-yl)thio)-4-nitro-N-(4-sulfamoylphenyl)thiophene-2-carboxamide] | 6.17 µM |
| ≤ 1000 nM |  | Cc1cnc(CNC(=O)c2cc([N+](=O)[O-])c(Sc3c(Cl)cncc3Cl)s2)cn1 [Example 103, 5-((3,5-dichloropyridin-4-yl)thio)-N-((5-methylpyrazin-2-yl)methyl)-4-nitrothiophene-2-carboxamide] | 7.18 µM |
| ≤ 1000 nM |  | O=C(Nc1cc(C(F)(F)F)n[nH]1)c1cc([N+](=O)[O-])c(Sc2c(Cl)cncc2Cl)s1 [Example 164, 5-((3,5-dichloropyridin-4-yl)thio)-4-nitro-N-(3-(trifluoromethyl)-1H-pyrazol-5-yl)thiophene-2-carboxamide] |  |
| ≤ 1000 nM |  | O=C(NCCCN1CCC(O)CC1)c1cc([N+](=O)[O-])c(Sc2c(Cl)cncc2Cl)s1 [Example 225, 5-((3,5-dichloropyridin-4-yl)thio)-N-(3-(4-hydroxypiperidin-1-yl)propyl)-4-nitrothiophene-2-carboxamide] |  |
